Laboratory results published in PMC4608580, “Synthesis and Evaluation of Biological Activity of Antimicrobial – Pro-Proliferative Peptide Conjugates” (PLoS ONE, 2015).

Legend:
Assay type in all cases: cell-based
[1] = tested on: immortalized human HaCaT keratinocytes; experiment: Cell proliferation assay (MTT); conditions: 72 h; for Effect on HaCaT cell viability (MTT), in words / Effect on HaCaT cell viability/proliferation (MTT), in words: serum-free DMEM; for Effect on HaCaT cell viability (MTT), in words: peptide at 50 μg/mL; for Concentration above which the conjugate is cytotoxic: MTT, cell type not named in the sentence (keratinocytes and fibroblasts tested); for Effect on HaCaT cell viability/proliferation (MTT), in words: whole range 1–50 μg/mL, vs. control without peptide, triplicate
Procedure: (§1) In our study two kind of cells were used: immortalized human HaCaT keratinocytes (DKFZ Heidelberg, Germany) and primary dermal fibroblasts obtained from 3 healthy donors. Both types of the used cell lines were grown in Dulbecco's modified Eagle's medium (DMEM) (Sigma–Aldrich, Germany), that contained […] of glucose, […] of L-glutamine, sodium pyruvate and sodium bicarbonate. Additionally, medium was supplemented with 10% of FCS (fetal calf serum, Sigma-Aldrich, Germany), 100 U/mL of penicillin and 100 μg/mL streptomycin (Sigma-Aldrich, Germany). The cells were grown in culture dishes (BD, USA) under standard conditions in a humidified atmosphere with 5% CO2 at 37°C and medium was changed every 2 days.
(§2) The fibroblasts and keratinocytes were seeded at density of 4500 and 6000 cells per well, respectively, into 96-well plates suspended in a medium supplemented with 10% of FCS. After 24 h the media were exchanged with serum- and antibiotic- free DMEM and tested peptides dissolved in PBS were added yielding final concentration ranging from 1 to 50 μg/mL. Cells were incubated for the next 24 hours, when the medium was exchanged again and fresh portion of peptides (used at the same concentrations as previously) was added. Incubation was continued for the next 48 hours (the overall time of cell exposition to peptide was 72 h). At the end of the experiment cells were treated with 20 μL of MTT (5 mg/mL in PBS). After 3 h at 37°C under 5% CO2 medium was discarded and replaced by 6mM HCl in isopropanol. After 15 min when the purple crystals of formazan were fully solubilized, absorbance was read at 570 nm with a plate reader. The optical density reflects the level of cell viability as MTT is converted in purple formazan product only in the presence of viable mitochondria of the living cells.
Fig 1 Pro-proliferative activity of the tested peptides towards human keratinocytes (A) and fibroblasts (B). Cells were incubated for 72 hours in serum-free DMEM medium in the presence of peptides applied at concentrations of 1,10, 25 and 50 μg/mL, respectively. The data represents results of MTT assay expressed as the percentage of the cell viability in comparison to their control sample (cells incubated in serum-free DMEM without tested peptides), additional positive control corresponds to the cells incubated in the presence of 10% FCS. All experiments were performed independently in triplicate. *P < 0.05, **P < 0.01, ***P < 0.001 vs. control.
In order to evaluate a long-term effect of peptides, experiments were carried out for 72 hours. Before addition of the tested compounds, the cell medium was exchanged for the fresh one not containing any serum or antibiotic.

[2] = tested on: human primary dermal fibroblasts; experiment: Cell proliferation assay (MTT); conditions: 72 h, serum-free DMEM, peptide at 25 and 50 μg/mL
Procedure: (§3) Biopsies of healthy human skin were obtained aseptically from three donors (47–69 years old) undergoing circumcision after obtaining their written informed consent. All the procedures were approved by the Ethics Committee of Medical University of Gdansk (NKEBN/483/2011. Issued: 2011-12-19). The samples were washed several times with sterile PBS (Sigma-Aldrich, Germany) containing antibiotic (200 U/mL penicillin and 200 μg/mL streptomycin), after which, the subcutaneous tissue was cut off with a sharp blade. The resulting sheets were cut into small fragments, washed two times with sterile PBS and treated with 6 U/mL dispase II (BD, USA) overnight at 4°C to separate epidermis and dermis. The dermis was then digested with 1.0 mg/mL collagenase type I (from Clostridium histolyticum Sigma-Aldrich, Germany) for 2 hours at 37°C to isolate fibroblasts. Cells were used between the 2nd and 4th passage in all experiments.
as §1
as §2, with “At the end of the experiment cells were treated with 20 μL of MTT (5 mg/mL in PBS). After 3 h at 37°C under 5% CO2 medium was discarded and replaced by 6mM HCl in isopropanol.” left out, “The optical density reflects the level of cell viability as MTT is converted in purple formazan product only in the presence of viable mitochondria of the living cells.” left out
Fig 1 Pro-proliferative activity of the tested peptides towards human keratinocytes (A) and fibroblasts (B). […] The data represents results of MTT assay expressed as the percentage of the cell viability in comparison to their control sample (cells incubated in serum-free DMEM without tested peptides), additional positive control corresponds to the cells incubated in the presence of 10% FCS. […]

[3] = tested on: human primary dermal fibroblasts; experiment: Cell migration assay (in vitro scratch test); conditions: 25 μg/mL, 24 h
Procedure: as §3
Fibroblasts and keratinocytes were seeded (5x10^5 cells/well) in 6-well plates. When desired monolayer confluence was reached, cells were starved for 24 hours in serum-free DMEM. The monolayer was scratched then with 200μL-pipette tip. […] The wounded areas were then photographed by means of Zeiss Observer D1 microscope equipped with camera AxioCam and analyzed with AxioVision software (Carl Zeiss, Germany). Migration activity of the cells treated with the tested peptides were expressed as the percentage of the wounded area with respect to the control probe (cell cultures without any of the peptide), assumed as 100%.
An in vitro scratch test was performed to investigate the effect of the analyzed compounds on keratinocytes and fibroblasts migration. […]
Fig 2 Effect of the peptides on HaCaT keratinocytes and fibroblasts cell migration in the in vitro scratch test. […] Migration was analyzed after 24 hours by means of Zeiss Observer D1 microscope, wounding areas were analyzed with AxioVision software and expressed as the percentage of the wound width in comparison to the control sample (cells incubated in DMEM without FCS). […]

| Substance | Effect on HaCaT cell viability (MTT), in words [1] | Concentration above which the conjugate is cytotoxic [1] | Effect on fibroblast viability (MTT), in words [2] | Effect on HaCaT cell viability/proliferation (MTT), in words [1] | Effect on fibroblast migration (scratch test), in words ([3]; serum-free DMEM, Mitomycin C 5 μg/mL, vs. control without peptide, three independent experiments) | Inhibitory effect on fibroblast migration in comparison to the control ([3]; scratch test) |
| --- | --- | --- | --- | --- | --- | --- |
| YAGFLR-PEG-IKKILSKIKKLLK-NH2 [DAL-PEG-LK6, conjugate of dalargin and LK6 joined by PEG-linker] | cytotoxic effect | higher than 25 μg/mL | lowest cell viability |  |  |  |
| YAGFLR-PEG-IKKILSKIKKLL-NH2 [DAL-PEG-DK5, conjugate of dalargin and DK5 joined by PEG-linker] | lowest cell viability | higher than 25 μg/mL | lowest cell viability | negative dose-response relationship | neutral or slightly stimulative |  |
| IKKILSKIKKLL-NH2 [DK5, Lys-rich derivative of amphibian AMP temporin-1CEb, …-NH2, reference compound] |  |  |  | negative dose-response relationship |  | ~50% |
